# From patent publication US8889854B2, “C-17 bicyclic amines of triterpenoids with HIV maturation inhibitory activity” (priority 2012, dated 2014)
# Tested on: recombinant NL4-3 virus (Renilla luciferase in nef, Gag P373S; NLRluc)
# Test: HIV Cell Culture Assay (luciferase reporter virus in MT-2 cells)
# Assay type: cell-based
# Conditions: luciferase activity
# Description: MT-2 cells and 293T cells were obtained from the NIH AIDS Research and Reference Reagent Program. MT-2 cells were propagated in RPMI 1640 media supplemented with 10% heat inactivated fetal bovine serum, […]. The 293T cells were propagated in DMEM media supplemented with 10% heat inactivated fetal bovine serum (FBS), 100 units/mL penicillin G and 100 μg/mL streptomycin. The proviral DNA clone of NL4-3 was obtained from the NIH AIDS Research and Reference Reagent Program. A recombinant NL4-3 virus, in which a section of the nef gene from NL4-3 was replaced with the Renilla luciferase gene, was used as a reference virus. In addition, residue Gag P373 was converted to P373S. Briefly, the recombinant virus was prepared by transfection of the altered proviral clone of NL4-3. Transfections were performed in 293T cells using LipofectAMINE PLUS from Invitrogen (Carlsbad, Calif.), according to manufacturer's instruction. The virus was titered in MT-2 cells using luciferase enzyme activity as a marker. Luciferase was quantitated using the Dual Luciferase kit from Promega (Madison, Wis.), with modifications to the manufacturer's protocol. The diluted Passive Lysis solution was pre-mixed with the re-suspended Luciferase Assay Reagent and the re-suspended Stop & Glo Substrate (2:1:1 ratio). Fifty (50) μL of the mixture was added to each aspirated well on assay plates and luciferase activity was measured immediately on a Wallac TriLux (Perkin-Elmer). Antiviral activities of inhibitors toward the recombinant virus were quantified by measuring luciferase activity in cells infected for 4-5 days with NLRluc recombinants in the presence serial dilutions of the inhibitor. Table 1 is the key for the data in Table 2.
# [1] = Renilla, NL43, MT-2 cells infected for 4-5 days with NLRluc recombinants, reported as group A/B
# [2] = Renilla, NL43, MT-2 cells infected for 4-5 days with NLRluc recombinants
SMILES,EC50 [1] [nM],EC50 [2] [nM],further results
"C=C(C)[C@@H]1CC[C@]2(NCCN3C[C@H]4C[C@@H]3CS4(=O)=O)CC[C@]3(C)[C@H](CC[C@@H]4[C@@]5(C)CC=C(C6=CC7C(C6)C7C(=O)O)C(C)(C)[C@@H]5CC[C@]43C)[C@@H]12 (single isomer, unassigned) [Example B4]",< 100,,
"C=C(C)[C@@H]1CC[C@]2(NCCN3C[C@H]4C[C@@H]3CS4(=O)=O)CC[C@]3(C)[C@H](CC[C@@H]4[C@@]5(C)CC=C(C6=CC7C(C6)C7C(=O)O)C(C)(C)[C@@H]5CC[C@]43C)[C@@H]12 (single isomer, unassigned) [Example B5]",,,"EC50 (MT-2 cells infected for 4-5 days with NLRluc recombinants, reported as group A/B): < 100 nM"
"C=C(C)[C@@H]1CC[C@]2(NCCN3C[C@@H]4C[C@H]3CO4)CC[C@]3(C)[C@H](CC[C@@H]4[C@@]5(C)CC=C(C6=CC7C(C6)C7C(=O)O)C(C)(C)[C@@H]5CC[C@]43C)[C@@H]12 (single isomer, unassigned) [Example B6]",,1.42,
"C=C(C)[C@@H]1CC[C@]2(NCCN3C[C@@H]4C[C@H]3CO4)CC[C@]3(C)[C@H](CC[C@@H]4[C@@]5(C)CC=C(C6=CC7C(C6)C7C(=O)O)C(C)(C)[C@@H]5CC[C@]43C)[C@@H]12 (single isomer, unassigned) [Example B7]",,,EC50 (MT-2 cells infected for 4-5 days with NLRluc recombinants): 2.28 nM
"C=C(C)[C@@H]1CC[C@]2(NC(=O)CN3C[C@@H]4CC[C@H]3C4)CC[C@]3(C)[C@H](CC[C@@H]4[C@@]5(C)CC=C(c6ccc(C(=O)O)cc6)C(C)(C)[C@@H]5CC[C@]43C)[C@@H]12 [Example 1, 4-((1R,3aS,5aR,5bR,7aR,11aS,11bR,13aR,13bR)-3a-(2-((1S,4R)-2-azabicyclo[2.2.1]heptan-2-yl)acetamido)-5a,5b,8,8,11a-pentamethyl-1-(prop-1-en-2-yl)-2,3,3a,4,5,5a,5b,6,7,7a,8,11,11a,11b,12,13,13a,13b-octadecahydro-1H-cyclopenta[a]chrysen-9-yl)benzoic acid]",,3.65,
"C=C(C)[C@@H]1CC[C@]2(NC(=O)CN3C[C@@H]4C[C@H]3CS4(=O)=O)CC[C@]3(C)[C@H](CC[C@@H]4[C@@]5(C)CC=C(c6ccc(C(=O)O)cc6)C(C)(C)[C@@H]5CC[C@]43C)[C@@H]12 [Example 2, 4-((1R,3aS,5aR,5bR,7aR,11aS,11bR,13aR,13bR)-3a-(2-((1S,4S)-2,2-dioxido-2-thia-5-azabicyclo[2.2.1]heptan-5-yl)acetamido)-5a,5b,8,8,11a-pentamethyl-1-(prop-1-en-2-yl)-2,3,3a,4,5,5a,5b,6,7,7a,8,11,11a,11b,12,13,13a,13b-octadecahydro-1H-cyclopenta[a]chrysen-9-yl)benzoic acid]",,1.93,
"C=C(C)[C@@H]1CC[C@]2(NC(=O)CN3C[C@@H]4C[C@H]3CN4Cc3ccccc3)CC[C@]3(C)[C@H](CC[C@@H]4[C@@]5(C)CC=C(c6ccc(C(=O)O)cc6)C(C)(C)[C@@H]5CC[C@]43C)[C@@H]12 [Example 3, 4-((1R,3aS,5aR,5bR,7aR,11aS,11bR,13aR,13bR)-3a-(2-((1S,4S)-5-benzyl-2,5-diazabicyclo[2.2.1]heptan-2-yl)acetamido)-5a,5b,8,8,11a-pentamethyl-1-(prop-1-en-2-yl)-2,3,3a,4,5,5a,5b,6,7,7a,8,11,11a,11b,12,13,13a,13b-octadecahydro-1H-cyclopenta[a]chrysen-9-yl)benzoic acid]",< 100,,
"CC(C)[C@@H]1CC[C@]2(NC(=O)CN3C[C@@H]4C[C@H]3CS4(=O)=O)CC[C@]3(C)[C@H](CC[C@@H]4[C@@]5(C)CC=C(c6ccc(C(=O)O)cc6)C(C)(C)[C@@H]5CC[C@]43C)[C@@H]12 [Example 4, 4-((1S,3aS,5aR,5bR,7aR,11aS,11bR,13aR,13bR)-3a-(2-((1S,4S)-2,2-dioxido-2-thia-5-azabicyclo[2.2.1]heptan-5-yl)acetamido)-1-isopropyl-5a,5b,8,8,11a-pentamethyl-2,3,3a,4,5,5a,5b,6,7,7a,8,11,11a,11b,12,13,13a,13b-octadecahydro-1H-cyclopenta[a]chrysen-9-yl)benzoic acid]",< 100,,
"C=C(C)[C@@H]1CC[C@]2(NCCN3C[C@@H]4C[C@H]3CS4(=O)=O)CC[C@]3(C)[C@H](CC[C@@H]4[C@@]5(C)CC=C(c6ccc(C(=O)O)cc6)C(C)(C)[C@@H]5CC[C@]43C)[C@@H]12 [Example 5, 4-((1R,3aS,5aR,5bR,7aR,11aS,11bR,13aR,13bR)-3a-((2-((1S,4S)-2,2-dioxido-2-thia-5-azabicyclo[2.2.1]heptan-5-yl)ethyl)amino)-5a,5b,8,8,11a-pentamethyl-1-(prop-1-en-2-yl)-2,3,3a,4,5,5a,5b,6,7,7a,8,11,11a,11b,12,13,13a,13b-octadecahydro-1H-cyclopenta[a]chrysen-9-yl)benzoic acid]",< 100,,
"C=C(C)[C@@H]1CC[C@]2(N(CCO)CCN3C[C@@H]4C[C@H]3CS4(=O)=O)CC[C@]3(C)[C@H](CC[C@@H]4[C@@]5(C)CC=C(c6ccc(C(=O)O)cc6)C(C)(C)[C@@H]5CC[C@]43C)[C@@H]12 [Example 6, 4-((1R,3aS,5aR,5bR,7aR,11aS,11bR,13aR,13bR)-3a-((2-((1S,4S)-2,2-dioxido-2-thia-5-azabicyclo[2.2.1]heptan-5-yl)ethyl)(2-hydroxyethyl)amino)-5a,5b,8,8,11a-pentamethyl-1-(prop-1-en-2-yl)-2,3,3a,4,5,5a,5b,6,7,7a,8,11,11a,11b,12,13,13a,13b-octadecahydro-1H-cyclopenta[a]chrysen-9-yl)benzoic acid]",< 100,,
"C=C(C)[C@@H]1CC[C@]2(NCCN3C[C@@H]4C[C@H]3CO4)CC[C@]3(C)[C@H](CC[C@@H]4[C@@]5(C)CC=C(c6ccc(C(=O)O)cc6)C(C)(C)[C@@H]5CC[C@]43C)[C@@H]12 [Example 7, 4-((1R,3aS,5aR,5bR,7aR,11aS,11bR,13aR,13bR)-3a-((2-((1S,4S)-2-oxa-5-azabicyclo[2.2.1]heptan-5-yl)ethyl)amino)-5a,5b,8,8,11a-pentamethyl-1-(prop-1-en-2-yl)-2,3,3a,4,5,5a,5b,6,7,7a,8,11,11a,11b,12,13,13a,13b-octadecahydro-1H-cyclopenta[a]chrysen-9-yl)benzoic acid]",< 100,,
"CC(C)[C@@H]1CC[C@]2(NCCN3C[C@@H]4C[C@H]3CO4)CC[C@]3(C)[C@H](CC[C@@H]4[C@@]5(C)CC=C(c6ccc(C(=O)O)cc6)C(C)(C)[C@@H]5CC[C@]43C)[C@@H]12 [Example 8, 4-((1S,3aS,5aR,5bR,7aR,11aS,11bR,13aR,13bR)-3a-((2-((1S,4S)-2-oxa-5-azabicyclo[2.2.1]heptan-5-yl)ethyl)amino)-1-isopropyl-5a,5b,8,8,11a-pentamethyl-2,3,3a,4,5,5a,5b,6,7,7a,8,11,11a,11b,12,13,13a,13b-octadecahydro-1H-cyclopenta[a]chrysen-9-yl)benzoic acid]",< 100,,
"C=C(C)[C@@H]1CC[C@]2(NCCN3C[C@@H]4C[C@H]3CN4Cc3ccccc3)CC[C@]3(C)[C@H](CC[C@@H]4[C@@]5(C)CC=C(c6ccc(C(=O)O)cc6)C(C)(C)[C@@H]5CC[C@]43C)[C@@H]12 [Example 9, 4-((1R,3aS,5aR,5bR,7aR,11aS,11bR,13aR,13bR)-3a-((2-((1S,4S)-5-benzyl-2,5-diazabicyclo[2.2.1]heptan-2-yl)ethyl)amino)-5a,5b,8,8,11a-pentamethyl-1-(prop-1-en-2-yl)-2,3,3a,4,5,5a,5b,6,7,7a,8,11,11a,11b,12,13,13a,13b-octadecahydro-1H-cyclopenta[a]chrysen-9-yl)benzoic acid]",,6.09,
"C=C(C)[C@@H]1CC[C@]2(NCCN3C[C@@H]4C[C@H]3CN4)CC[C@]3(C)[C@H](CC[C@@H]4[C@@]5(C)CC=C(c6ccc(C(=O)O)cc6)C(C)(C)[C@@H]5CC[C@]43C)[C@@H]12 [Example 10, 4-((1R,3aS,5aR,5bR,7aR,11aS,11bR,13aR,13bR)-3a-((2-((1S,4S)-2,5-diazabicyclo[2.2.1]heptan-2-yl)ethyl)amino)-5a,5b,8,8,11a-pentamethyl-1-(prop-1-en-2-yl)-2,3,3a,4,5,5a,5b,6,7,7a,8,11,11a,11b,12,13,13a,13b-octadecahydro-1H-cyclopenta[a]chrysen-9-yl)benzoic acid]",,1.21,
